Key:
CHRM3 = CHRM3 (Homo sapiens, UniProt P20309); assay: cell-based; set-up: species or system HTLA; PRESTO-Tango beta-arrestin2 recruitment, luciferase luminescence, concentration-response; conditions: Assay=Tango; agonist mode
SSTR4 = SSTR4 (Homo sapiens, UniProt P31391); assay: cell-based; set-up: species or system HTLA; PRESTO-Tango beta-arrestin2 recruitment, luciferase luminescence, concentration-response; conditions: Assay=Tango; agonist mode
β2 = β2 (Homo sapiens, UniProt P07550); assay: competitive radioligand binding, HEK293 membranes; set-up: gene ADRB2; full-length receptor; HEK293 cell membranes
Sequence of β2 (P07550 whole entry): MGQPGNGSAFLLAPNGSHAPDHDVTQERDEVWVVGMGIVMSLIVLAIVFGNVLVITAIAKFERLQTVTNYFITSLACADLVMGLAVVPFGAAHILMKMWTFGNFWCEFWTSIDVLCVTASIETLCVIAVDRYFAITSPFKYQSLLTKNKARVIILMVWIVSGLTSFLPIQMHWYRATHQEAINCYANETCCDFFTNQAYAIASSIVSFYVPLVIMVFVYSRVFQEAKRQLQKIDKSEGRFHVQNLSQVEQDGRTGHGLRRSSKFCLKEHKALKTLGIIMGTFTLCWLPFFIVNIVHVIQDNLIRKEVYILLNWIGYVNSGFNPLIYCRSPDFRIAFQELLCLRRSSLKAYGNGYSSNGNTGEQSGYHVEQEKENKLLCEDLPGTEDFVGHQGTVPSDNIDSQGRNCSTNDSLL
Source text: competitive radioligand binding, HEK293 membranes on β2

DRD1 = DRD1 (Homo sapiens, UniProt P21728); assay: biochemical; set-up: species or system HEK293; PDSP competitive radioligand binding, membranes of transfected HEK293 cells, filtration, Ki by Cheng-Prusoff; conditions: read-out: N-desmethyl-xanomeline (PDSP) pKi (converted)
Sequence of DRD1 (P21728 whole entry): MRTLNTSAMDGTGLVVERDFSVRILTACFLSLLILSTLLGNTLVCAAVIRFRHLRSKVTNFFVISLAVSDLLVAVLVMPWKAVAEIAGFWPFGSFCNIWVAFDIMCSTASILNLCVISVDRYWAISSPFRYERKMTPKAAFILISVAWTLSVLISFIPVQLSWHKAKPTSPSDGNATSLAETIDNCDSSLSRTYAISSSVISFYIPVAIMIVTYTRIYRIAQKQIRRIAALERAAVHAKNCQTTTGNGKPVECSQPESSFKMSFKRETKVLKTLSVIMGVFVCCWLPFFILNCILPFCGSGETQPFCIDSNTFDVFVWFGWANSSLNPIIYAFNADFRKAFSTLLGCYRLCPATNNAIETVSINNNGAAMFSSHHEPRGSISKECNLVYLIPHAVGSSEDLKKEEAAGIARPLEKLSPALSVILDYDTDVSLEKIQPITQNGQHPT
Description: (§1) Competitive radioligand binding assays were performed at the NIMH Psychoactive Drug Screening Program (PDSP) using membranes from transiently transfected HEK293 cells in 96-well format as described. Complete, target-specific protocols are available at the PDSP website (https://pdsp.unc.edu/pdspweb/?site=assays). Primary screenings were run at a single test concentration (10 µM) in quadruplicate. […] Secondary assays were conducted in triplicate using 12-point serial dilutions (0, 0.1, 0.3, 1, 3, 10, 30, 100, 300 nM; 1, 3, 10 µM). Assays were performed in a final volume of 125 µL per well in binding buffer, as detailed in the NIMH PDSP protocols (e.g., standard binding buffer: 50 mM Tris-HCl, pH 7.4, 10 mM MgCl2, 0.1 mM EDTA). Radioligand concentrations were chosen near the target-specific Kd. Total and nonspecific binding were defined in the absence and presence, respectively, of 10 µM reference ligand specific for each receptor. After 90 min incubation at room temperature, reactions were terminated by vacuum filtration onto 0.3% polyethyleneimine-pretreated UniFilter-96 GF/C Microplates using a FilterMate harvester, washed three times with ice-cold buffer (50 mM Tris HCl, pH 7.4), dried, treated with MicroScint-O [compound left out] scintillation cocktails, and counted on a MicroBeta counter. Equilibrium inhibition constants (Ki) were calculated from fitted IC50 values using the Cheng–Prusoff equation [14] with the assay-specific radioligand concentration and Kd. TABLE 1. […] Results represented mean ± SEM from a minimum of 3 independent assays, each in triplicate. ND=not determined.

5-HT4 = target: T1, 5-HT4 (Homo sapiens, UniProt Q13639); assay: biochemical; set-up: species or system HEK293; PDSP competitive radioligand binding, membranes of transfected HEK293 cells, filtration, Ki by Cheng-Prusoff; conditions: read-out: N-desmethyl-xanomeline (PDSP) pKi (converted)
T1 construct: gene HTR4
T1 sequence (Q13639 whole entry): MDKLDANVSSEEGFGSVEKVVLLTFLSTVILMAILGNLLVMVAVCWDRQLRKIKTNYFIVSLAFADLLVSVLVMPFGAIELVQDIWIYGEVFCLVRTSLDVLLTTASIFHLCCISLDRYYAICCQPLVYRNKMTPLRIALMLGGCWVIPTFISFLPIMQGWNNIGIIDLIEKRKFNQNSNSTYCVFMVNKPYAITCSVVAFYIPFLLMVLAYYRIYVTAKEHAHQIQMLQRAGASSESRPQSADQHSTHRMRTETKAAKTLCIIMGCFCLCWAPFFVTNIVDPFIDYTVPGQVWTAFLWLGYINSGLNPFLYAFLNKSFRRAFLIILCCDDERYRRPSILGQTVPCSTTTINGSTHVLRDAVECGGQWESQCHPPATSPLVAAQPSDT
Description: as §1

HTR2C = target: T2, HTR2C (Homo sapiens, UniProt P28335); assay: cell-based; set-up: species or system HEK293; Fluo-4 Direct calcium mobilization on FLIPR-Tetra; conditions: Assay=Calcium; agonist mode
T2 sequence (P28335 1-458): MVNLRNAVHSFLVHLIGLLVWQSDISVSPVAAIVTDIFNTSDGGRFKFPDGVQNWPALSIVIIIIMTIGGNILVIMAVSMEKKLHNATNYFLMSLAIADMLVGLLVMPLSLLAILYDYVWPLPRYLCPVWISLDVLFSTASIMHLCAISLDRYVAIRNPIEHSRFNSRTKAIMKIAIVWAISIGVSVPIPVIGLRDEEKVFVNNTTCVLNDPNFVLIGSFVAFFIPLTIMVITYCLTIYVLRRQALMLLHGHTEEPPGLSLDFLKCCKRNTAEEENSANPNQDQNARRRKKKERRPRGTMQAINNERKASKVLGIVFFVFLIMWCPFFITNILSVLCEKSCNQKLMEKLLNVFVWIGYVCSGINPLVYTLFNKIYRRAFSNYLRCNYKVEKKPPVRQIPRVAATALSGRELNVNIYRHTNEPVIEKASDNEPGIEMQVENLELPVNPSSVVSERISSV

DRD4 = target: T3, DRD4 (Homo sapiens, UniProt P21917); assay: cell-based; set-up: species or system HTLA; PRESTO-Tango beta-arrestin2 recruitment, luciferase luminescence, concentration-response; conditions: Assay=Tango; agonist mode
T3 sequence (P21917 1-419): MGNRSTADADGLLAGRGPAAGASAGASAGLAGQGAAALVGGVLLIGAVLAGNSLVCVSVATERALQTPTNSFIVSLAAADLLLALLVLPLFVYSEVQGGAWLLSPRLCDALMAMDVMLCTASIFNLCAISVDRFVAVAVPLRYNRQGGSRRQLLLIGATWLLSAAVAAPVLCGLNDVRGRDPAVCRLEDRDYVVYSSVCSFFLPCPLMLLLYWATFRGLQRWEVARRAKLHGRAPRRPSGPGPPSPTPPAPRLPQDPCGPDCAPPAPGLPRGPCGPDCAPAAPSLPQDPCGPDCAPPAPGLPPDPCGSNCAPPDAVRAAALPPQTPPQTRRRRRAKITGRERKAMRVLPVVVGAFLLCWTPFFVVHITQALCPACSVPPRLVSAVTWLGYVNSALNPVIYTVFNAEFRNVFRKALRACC

β3 = target: T4, β3 (Homo sapiens, UniProt P13945); assay: biochemical; set-up: species or system HEK293; PDSP competitive radioligand binding, membranes of transfected HEK293 cells, filtration, Ki by Cheng-Prusoff
T4 construct: gene ADRB3
T4 sequence (P13945 whole entry): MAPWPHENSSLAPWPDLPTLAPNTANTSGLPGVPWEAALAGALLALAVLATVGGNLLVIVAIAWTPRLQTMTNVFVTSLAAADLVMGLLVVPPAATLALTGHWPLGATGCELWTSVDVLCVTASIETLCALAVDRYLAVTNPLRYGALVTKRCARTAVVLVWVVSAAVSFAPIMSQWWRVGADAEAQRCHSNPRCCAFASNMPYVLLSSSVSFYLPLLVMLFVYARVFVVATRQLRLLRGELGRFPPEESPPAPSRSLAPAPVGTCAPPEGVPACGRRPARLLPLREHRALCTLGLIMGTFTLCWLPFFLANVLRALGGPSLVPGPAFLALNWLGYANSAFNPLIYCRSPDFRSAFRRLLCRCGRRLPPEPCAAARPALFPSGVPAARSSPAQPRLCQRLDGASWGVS
Description: as §1

DAT = target: T5, DAT (Homo sapiens, UniProt Q01959); assay: biochemical; set-up: species or system HEK293; PDSP competitive radioligand binding, membranes of transfected HEK293 cells, filtration, Ki by Cheng-Prusoff
T5 construct: gene SLC6A3
T5 sequence (Q01959 whole entry): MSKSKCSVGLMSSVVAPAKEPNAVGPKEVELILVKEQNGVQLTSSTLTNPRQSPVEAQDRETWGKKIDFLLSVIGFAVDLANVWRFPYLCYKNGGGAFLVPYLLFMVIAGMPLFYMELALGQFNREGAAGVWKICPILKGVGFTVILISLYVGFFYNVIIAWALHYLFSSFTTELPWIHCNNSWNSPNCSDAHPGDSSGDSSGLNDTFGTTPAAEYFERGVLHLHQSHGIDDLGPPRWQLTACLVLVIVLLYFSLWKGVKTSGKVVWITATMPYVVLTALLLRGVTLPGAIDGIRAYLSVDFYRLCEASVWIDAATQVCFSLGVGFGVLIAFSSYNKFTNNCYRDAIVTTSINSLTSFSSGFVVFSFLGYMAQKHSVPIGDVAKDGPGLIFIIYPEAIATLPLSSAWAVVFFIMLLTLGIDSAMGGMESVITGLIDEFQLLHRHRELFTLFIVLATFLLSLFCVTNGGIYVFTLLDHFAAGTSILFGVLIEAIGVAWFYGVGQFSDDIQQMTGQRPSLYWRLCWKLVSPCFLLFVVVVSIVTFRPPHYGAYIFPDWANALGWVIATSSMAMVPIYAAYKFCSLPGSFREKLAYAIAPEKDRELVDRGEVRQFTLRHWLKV
Description: as §1

5-HT6 = target: T6, 5-HT6 (Homo sapiens, UniProt P50406); assay: biochemical; set-up: species or system HEK293; PDSP competitive radioligand binding, membranes of transfected HEK293 cells, filtration, Ki by Cheng-Prusoff
T6 construct: gene HTR6
T6 sequence (P50406 whole entry): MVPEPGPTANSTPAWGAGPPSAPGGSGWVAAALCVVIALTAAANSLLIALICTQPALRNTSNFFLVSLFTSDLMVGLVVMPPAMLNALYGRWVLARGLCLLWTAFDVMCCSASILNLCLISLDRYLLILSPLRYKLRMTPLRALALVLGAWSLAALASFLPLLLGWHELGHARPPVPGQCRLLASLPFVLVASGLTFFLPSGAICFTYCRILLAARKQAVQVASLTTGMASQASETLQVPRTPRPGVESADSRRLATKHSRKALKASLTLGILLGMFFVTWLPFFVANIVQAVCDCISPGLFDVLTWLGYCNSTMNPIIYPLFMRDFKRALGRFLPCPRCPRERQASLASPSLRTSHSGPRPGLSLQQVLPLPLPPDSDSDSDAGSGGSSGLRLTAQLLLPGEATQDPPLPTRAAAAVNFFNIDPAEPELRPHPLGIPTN
Description: as §1

Sequence of CHRM3 (P20309 whole entry): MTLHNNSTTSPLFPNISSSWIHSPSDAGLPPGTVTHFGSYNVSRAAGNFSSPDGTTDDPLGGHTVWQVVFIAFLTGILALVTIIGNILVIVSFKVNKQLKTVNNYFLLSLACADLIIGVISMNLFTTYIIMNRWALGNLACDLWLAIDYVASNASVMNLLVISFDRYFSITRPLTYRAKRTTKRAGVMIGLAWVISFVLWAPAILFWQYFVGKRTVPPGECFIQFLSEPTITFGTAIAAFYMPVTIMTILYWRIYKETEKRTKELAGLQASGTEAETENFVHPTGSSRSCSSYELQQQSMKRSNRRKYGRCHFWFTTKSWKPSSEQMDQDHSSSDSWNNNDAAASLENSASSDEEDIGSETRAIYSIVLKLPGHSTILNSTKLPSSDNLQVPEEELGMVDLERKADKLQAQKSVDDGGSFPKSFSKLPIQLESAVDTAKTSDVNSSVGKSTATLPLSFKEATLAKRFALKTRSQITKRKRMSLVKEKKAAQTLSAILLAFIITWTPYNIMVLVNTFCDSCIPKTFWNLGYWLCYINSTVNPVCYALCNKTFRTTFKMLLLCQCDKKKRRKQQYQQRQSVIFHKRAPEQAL
Sequence of SSTR4 (P31391 whole entry): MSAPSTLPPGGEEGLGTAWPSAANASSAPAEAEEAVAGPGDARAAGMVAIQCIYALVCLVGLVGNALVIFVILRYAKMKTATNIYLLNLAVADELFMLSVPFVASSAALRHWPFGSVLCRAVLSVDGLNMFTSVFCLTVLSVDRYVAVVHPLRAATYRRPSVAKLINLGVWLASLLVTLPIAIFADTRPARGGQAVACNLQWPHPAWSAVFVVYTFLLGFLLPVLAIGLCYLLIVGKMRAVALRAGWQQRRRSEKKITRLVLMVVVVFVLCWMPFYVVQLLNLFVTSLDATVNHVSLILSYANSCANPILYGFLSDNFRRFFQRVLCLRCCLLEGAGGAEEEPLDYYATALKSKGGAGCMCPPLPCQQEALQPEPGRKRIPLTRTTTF

Row | Structure (SMILES) | EC50 (CHRM3) [µM] | EC50 (SSTR4) [µM] | Ki (β2) [µM] | Ki (DRD1) [µM] | Ki (5-HT4) [µM] | EC50 (HTR2C) [µM] | EC50 (DRD4) [µM] | Ki (β3) [µM] | Ki (DAT) [µM] | Ki (5-HT6) [µM]
1 | CCCCCCOc1nsnc1C1=CCCNC1 [N-desmethylxanomeline] | 0.104 | 0.931 | 0.832 | 2.34 | 3.72 | 1.09 | – | – | – | –
2 | CCCCCCOc1nsnc1C1=CCCN(C)C1 [Xanomeline] | – | – | – | – | – | – | 4.8 | > 10 | > 10 | 3.98
